From patent US8729087B2, “Compositions and methods for inhibition of the JAK pathway” (Rigel Pharmaceuticals, Inc., priority 2006, dated 2014)
Read-outs that look alike come from different tables or passages of the source.

Assays:
[1] = tested on: Ramos B-cell line stimulated with IL-4; assay: Assay for Ramos B-Cell Line Stimulated with IL-4 (CD23 upregulation, FACS); format: cell-based, human; conditions: IL-4 50 units/mL, 20-24 hours, anti-CD23-PE staining, FACS, read-out: Example 2 (IC50, Ramos B-cell line stimulated with IL-4)
Text: One means of assaying for such inhibition is detection of the effect of the 2,4-pyrimidinediamine compounds on the upregulation of downstream gene products. In the Ramos/IL4 assay, B-cells are stimulated with the cytokine Interleukin-4 (IL-4) leading to the activation of the JAK/Stat pathway through phosphorylation of the JAK family kinases, JAK1 and JAK3, which in turn phosphorylate and activate the transcription factor Stat-6. […] To study the effect of inhibitors (e.g., the 2,4-substituted pyrimindinediamine compounds described herein) on the JAK1 and JAK3 kinases, human Ramos B cells are stimulated with human IL-4. Twenty to 24 hours post stimulation, cells are stained for upregulation of CD23 and analyzed using flow cytometry (FACS). […] An exemplary assay of this type is described in greater detail in Example 2.
B-cells stimulated with cytokine Interleukin-4 (IL-4) activate the JAK/Stat pathway through phosphorylation of the JAK family kinases, JAK-1 and JAK-3, which in turn phosphorylate and activate the transcription factor Stat-6. […] To study the effect of inhibitors on the JAK family kinases, human Ramos B cells are stimulated with human IL-4.
The Ramos B-cell line was acquired from ATCC (ATCC Catalog No. CRL-1596). The cells were cultured in RPMI 1640 (Cellgro, MediaTech, Inc., Herndon, Va., Cat No. 10-040-CM) with 10% fetal bovine serum (FBS), heat inactivated (JRH Biosciences, Inc, Lenexa, Kans., Cat No. 12106-500M) according to ATCC propagation protocol. Cells were maintained at a density of 3.5×10^5. The day before the experiment, Ramos B-cells were diluted to 3.5×10^5 cells/mL to ensure that they were in a logarithmic growth phase.
Cells were spun down and suspended in RPMI with 5% serum. 5×10^4 cells were used per point in a 96-well tissue culture plate. Cells were pre-incubated with compound or DMSO (Sigma-Aldrich, St. Louis, Mo., Cat No. D2650) vehicle control for 1 hour in a 37° C. incubator.
Cells were then stimulated with IL-4 (Peprotech Inc., Rocky Hill, N.J., Cat No. 200-04) for a final concentration of 50 units/mL for 20-24 hours. Cells were then spun down and stained with anti-CD23-PE (BD Pharmingen, San Diego, Calif., Cat No. 555711) and analyzed by FACS. Detection was performed using a BD LSR I System Flow Cytometer, purchased from Becton Dickinson Biosciences of San Jose, Calif.

Primary human T-cells = assay: Primary Human T-Cell Proliferation Assay Stimulated with IL-2 (CellTiter-Glo); format: cell-based; conditions: IL-2, 72 hours, ATP quantitation (CellTiter-Glo), read-out: Example 3 (IC50, primary human T-cell proliferation stimulated with IL-2)
Text: The activity of the active compounds of the invention may further be characterized by assaying the effect of the 2,4-pyrimidinediamine compounds described herein on the proliferative response of primary human T-cells. In this assay, primary human T-cells derived from peripheral blood and pre-activated through stimulation of the T-cell receptor and CD28, proliferate in culture in response to the cytokine Interleukin-2 (IL-2). This proliferative response is dependent on the activation of JAK1 and JAK3 tyrosine kinases, which phosphorylate and activate the transcription factor Stat-5. The primary human T-cells are incubated with the 2,4-pyrimidinediamine compounds in the presence of IL-2 for 72 hours and at the assay endpoint intracellular ATP concentrations are measured to assess cell viability. A reduction in cell proliferation compared to control conditions is indicative of inhibition of the JAK kinase pathway. An exemplary assay of this type is described in greater detail in Example 3.
Primary human T-cells derived from peripheral blood and pre-activated through stimulation of the T-cell receptor and CD28, proliferate in vitro in response to the cytokine Interleukin-2 (IL-2). This proliferative response is dependent on the activation of JAK-1 and JAK-3 tyrosine kinases, which phosphorylate and activate the transcription factor Stat-5.
Human primary T cells were prepared as follows. Whole blood was obtained from a healthy volunteer, mixed 1:1 with PBS, layered on to Ficoll Hypaque (Amersham Pharmacia Biotech, Piscataway, N.J., Catalog #17-1440-03) in 2:1 blood/PBS:ficoll ratio and centrifuged for 30 min at 4° C. at 1750 rpm. The lymphocytes at the serum: ficoll interface were recovered and washed twice with 5 volumes of PBS. The cells were resuspended in Yssel's medium (Gemini Bio-products, Woodland, Calif., Catalog #400-103) containing 40 U/mL recombinant IL2 (R and D Systems, Minneapolis, Minn., Catalog #202-IL (20 μg)) and seeded into a flask pre-coated with 1 μg/mL anti-CD3 (BD Pharmingen, San Diego, Calif., Catalog #555336) and […] (Immunotech, Beckman Coulter of Brea Calif., Catalog #IM1376). The primary T-cells were stimulated for 3-4 days, then transferred to a fresh flask and maintained in RPMI with 10% FBS and 40 U/mL IL-2.
Primary T-cells were washed twice with PBS to remove the IL-2 and resuspended in Yssel's medium at 2×10^6 cells/mL. 50 μL of cell suspension containing 80 U/mL IL-2 was added to each well of a flat bottom 96 well black plate. For the unstimulated control, IL-2 was omitted from the last column on the plate. Compounds were serially diluted in dimethyl sulfoxide (DMSO, 99.7% pure, cell culture tested, Sigma-Aldrich, St. Louis, Mo., Catalog No. D2650) from 5 mM in 3-fold dilutions, and then diluted 1:250 in Yssel's medium. 50 μL of 2× compound was added per well in duplicate and the cells were allowed to proliferate for 72 hours at 37° C.
Proliferation was measured using CellTiter-Glo® Luminescent Cell Viability Assay (Promega), which determines the number of viable cells in culture based on quantitation of the ATP present, as an indicator of metabolically active cells. The substrate was thawed and allowed to come to room temperature. After mixing the Cell Titer-Glo reagent and diluent together, 100 μL was added to each well. The plates were mixed on an orbital shaker for two minutes to induce lysis and incubated at room temperature for an additional ten minutes to allow the signal to equilibrate. Detection was performed using a Wallac Victor2 1420 multilabel counter purchased from Perkin Elmer, Shelton, Conn.

IC50 ([1]; Homo sapiens, Ramos) [µM] | Compound | IC50 [1] [µM] | IC50 (Primary human T-cells; Homo sapiens, T-cell, 72 h) [µM] | IC50 (Primary human T-cells) [µM]
– | CCS(=O)(=O)NCCc1ccc(Nc2nc(Nc3ccc(CS(=O)(=O)NC)cc3)ncc2F)cc1 [Compound I-15, N4-[4-(2-ethylsulfonylamino)ethyl]phenyl-5-fluoro-N2-(4-methylaminosulfonylmethyl)phenyl-2,4-pyrimidinediamine] | 0.378 | – | –
0.214 | C#CCn1ccc2cc(Nc3nc(Nc4cccc(CS(N)(=O)=O)c4)ncc3F)ccc21 [IV-3, N2-(3-Aminosulfonylmethylphenyl)-5-fluoro-N4-[1-(propyn-3-yl)indol-5-yl]-2,4-pyrimidinediamine] | – | 1.98 | –
– | N2-(3-Aminosulfonylmethylenephenyl)-5-fluoro-N4-[2-(2-N-morpholinoethylaminoacrbonyl)benzofuran-5-yl]-2,4-pyrimidinediamine [IV-5] | 3.04 | – | –
0.0931 | C#CCOc1ccc(Nc2nc(Nc3cccc(CS(N)(=O)=O)c3)ncc2F)cc1 [Compound I-3, N2-(3-Aminosulfonylmethylphenyl)-5-fluoro-N4-[4-(prop-2-ynyloxy)phenyl]-2,4-pyrimidinediamine] | – | 0.782 | –
2.55 | CN1CCC(NS(=O)(=O)C=C2C=CC=C(Nc3nc(NC4=CC=CC(=CS(N)(=O)=O)C4)ncc3F)C2)CC1 [Compound I-21, N2-[3-(Aminosulfonylmethylene)phenyl]-5-fluoro-N4-[3-(1-methylpiperidin-4-ylaminosulfonylmethylene)phenyl]-2,4-pyrimidinediamine] | – | – | –
0.391 | Cc1cnc(Nc2cccc(CNS(=O)(=O)C3CC3)c2)nc1Nc1ccc2c(n1)CCC(=O)O2 [Compound V-5] | – | – | –
14.8 | NS(=O)(=O)c1cccc(Nc2ncc(F)c(Nc3cc4c(cc3F)CS(=O)(=O)N4)n2)c1 [Compound V-2, N2-(3-aminosulfonyl)phenyl-5-fluoro-N4-(2,2-dioxo-5-fluoro-1,3-dihydrobenzo[c]isothiazol-6-yl)-2,4-pyrimidinediamine] | – | 24.2 | –
12.9 | Cc1ccc(Nc2ncc(F)c(Nc3cc4c(cc3F)CS(=O)(=O)N4)n2)cc1S(N)(=O)=O [Compound V-3, N2-(3-aminosulfonyl-4-methyl)phenyl-5-fluoro-N4-(2,2-dioxo-5-fluoro-1,3-dihydrobenzo[c]isothiazol-6-yl)-2,4-pyrimidinediamine] | – | – | –
– | O=S(=O)(NCc1ccc(Nc2ncc(C(F)(F)F)c(Nc3ccc(CNS(=O)(=O)C4CC4)cc3)n2)cc1)C1CC1 [II-4, N2,N4-bis(4-cyclopropylsulfonylaminomethyl)phenyl-5-trifluoromethyl-2,4-pyrimidinediamine] | 0.136 | – | 0.423
– | CCCN(Cc1ccc(Nc2nc(Nc3ccc(CS(=O)(=O)NC)cc3)ncc2F)cc1)S(=O)(=O)CC [Compound I-9, N4-[4-(N-ethylsulfonyl-N-propyl)aminomethyl]phenyl-5-fluoro-N2-(4-methylaminosulfonylmethyl)phenyl-2,4-pyrimidinediamine] | 0.224 | – | 1.38
– | CCS(=O)(=O)NCc1cccc(Nc2nc(Nc3ccc(CS(=O)(=O)NC)cc3)ncc2F)c1 [Compound I-12, N4-(3-ethylsulfonylaminomethyl)phenyl-5-fluoro-N2-(4-methylaminosulfonylmethyl)phenyl-2,4-pyrimidinediamine] | 0.314 | – | 1.38
– | CC1(C)Oc2ccc(Nc3nc(Nc4ccc5c(c4)CN(S(N)(=O)=O)CC5)ncc3F)nc2NC1=O [III-3, N2-(2-Aminosulfonyl-1,2,3,4-tetrahydroisoquinolin-7-yl)-N4-(2,2-dimethyl-3-oxo-4H-5-pyrid[1,4]oxazin-6-yl)-5-fluoro-2,4-pyrimidinediamine] | 0.0729 | – | 0.269
– | Cn1nccc1NC(=O)Cc1cccc(Nc2nc(Nc3cccc(CS(N)(=O)=O)c3)ncc2F)c1 [Compound I-20, N2-[3-(Aminosulfonylmethylene)phenyl]-5-fluoro-N4-[(1-methylpyrazolyl-5-aminocarbonylmethylene)phenyl]-5-fluoro-2,4-pyrimidinediamine] | 1.14 | – | –
0.794 | CC1(C)Oc2ccc(Nc3nc(Nc4ccc5c(c4)NS(=O)(=O)CO5)ncc3F)nc2NC1=O [Compound V-4, N4-[2,2-dimethyl-3-oxo-4H-pyrid[1,4]oxazin-7-yl]-N2-[3,3-dioxo-1H-benzo[e][1,3,4]oxathiazin-7-yl]-5-fluoro-2,4-pyrimidinediamine] | – | 1.72 | –
– | Cc1cnc(Nc2ccc(CNS(=O)(=O)c3cccnc3)cc2)nc1Nc1ccc(CNS(=O)(=O)c2cccnc2)cc1 [II-3, N2,N4-bis[4-(pyrid-3-yl)sulfonylaminomethyl]phenyl-5-methyl-2,4-pyrimidinediamine] | 0.322 | – | –
0.312 | Cc1cnc(Nc2cccc(S(N)(=O)=O)c2)nc1Nc1ccc2c(c1)C(NS(C)(=O)=O)CC2 (racemic) [VI-1, (+/−)-N2-(3-Aminosulfonylphenyl)-5-methyl-N4-[1-(methylsulfonyl)aminoindan-6-yl]-2,4-pyrimidinediamine] | – | – | –
12.4 | NS(=O)(=O)c1ccc(Nc2ncc(F)c(Nc3cc4c(cc3F)CS(=O)(=O)N4)n2)cc1 [Compound V-1, N2-(4-aminosulfonyl)phenyl-5-fluoro-N4-(2,2-dioxo-5-fluoro-1,3-dihydrobenzo[c]isothiazol-6-yl)-2,4-pyrimidinediamine] | – | – | –
0.353 | C#CCOC(=O)NCc1ccc(Nc2nc(Nc3cccc(CS(N)(=O)=O)c3)ncc2F)cc1 [Compound I-14, N2-(3-Aminosulfonylmethylphenyl)-5-fluoro-N4-{4-[(prop-2-ynyloxy)carbonylaminomethyl]phenyl}-2,4-pyrimidinediamine] | – | – | –
